Data taken from article PMC8100298, “Histone deacetylase inhibitor resminostat in combination with sorafenib counteracts platelet-mediated pro-tumoral effects in hepatocellular carcinoma” (Scientific Reports, 2021).
Where two headings read alike, the source gives them in different places.

Tests used:
Assay in all cases: Efficacy screening assay
Format in all cases: cell-based
[1] = test system: BXPC3; conditions: BXPC3, pancreas
Protocol: (§1) The experiment was performed by Oncolead GmbH & Co. KG (Karlsfeld , Germany), based on a standardized screening procedure . Cell lines were purchased directly from the ATCC, NCI and DSMZ cell line c ollections. Cells used for the study had undergone less than 20 passages. To ensure the absence of potential contamination and wrong assignment, all cell lines were tested using a whole genome assay (Agilent, USA). All cell lines were grown as recommended by the suppliers and with addition of 100 U/mL penicillin G and 100 µg/mL; streptomycin. Cell growth and treatments were performed in Nunclon D 96 -well plates (NUNC, Germany). The optimal seeding density for each cell line was determined to ensure exponential growth for the duration of the experiment. All cells growing without anti-cancer agents were sub-conﬂuent by the end of the treatment, as determined by visual inspection.
(§2) After an initial 24 h pre-growth period, the compounds were added. The vehicle concentration […]
(§3) was 0.1% DMSO. After incubation at 37°C for 72 h, the culture medium was aspirated, and the cells were precipitated by the addition of 10% trichloroacetic acid (Sigma-Aldrich, Missouri, US). After overnight incubation at 4°C, the plates were washed three times with deionized water. The precipitates were then stained with SRB (0.4% wt/v sulforhodamine B solution in 1% acetic acid, Sigma-Aldrich, Missouri, US). Afterwards, the plates were washed six times with 1% acetic acid to remove unbound stain. After drying the plates at room temperature, the bound SRB was solubilized with 10 mM Tris base and the optical density was measured at 520 nm using a Victor2 plate reader (Perkin Elmer, Germany). Blank OD values were subtracted from mean OD values for each concentration. The nonlinear curve ﬁtting and EC50 calculations were per formed using XLﬁt and algorithm “205” (ID Business […]
(§4) one-way ANOVA and multiple comparison (Dunnett) was performed for compound treatments compared to vehicle control. The adjusted p-values with 95% confidence interval were reported as significant. For comparison of EC50 values in Figure 1F, one-way ANOVA with multiple comparison testing (Tukey) was performed. Multiplicity adjusted p -values for the EC50 with sorafenib versus resminostat for each cell line and comparison between cell lines for sorafenib are presented (95% confidence interval for significance testing). For comparison of EC50 data in Figure 2B, one-way ANOVA with multiple comparison testing (Tukey) was performed. Multiplicity adjusted p-values with 95% confidence interval was applied. For the invasion assays in Figure 4, one-way ANOVA with multiple comparison testing (Tukey) was performed. Multiplicity adjusted p-values with 95% confidence interval was applied. The adjusted p-values comparing vehicle control without vs. with platelets and compound

[2] = test system: 22RV1; conditions: 22RV1, prostate
Protocol: as §1, §2, §3, §4

[3] = test system: CACO2; conditions: CACO2, colon
Protocol: as §1, §2, §3, §4

[4] = test system: CAKI1; conditions: CAKI1, kidney
Protocol: as §1, §2, §3, §4

[5] = test system: BT20; conditions: BT20, breast
Protocol: as §1, §2, §3, §4

[6] = test system: ASPC1; conditions: Homo sapiens, ASPC1, pancreas, 72 h
Protocol: as §1, §2, §3, §4

[7] = test system: A549; conditions: A549, lung
Protocol: as §1, §2, §3, §4

[8] = test system: A2780; conditions: A2780, ovary
Protocol: as §1, §2, §3, §4

[9] = test system: 786O; conditions: kidney
Protocol: as §1, §2, §3, §4

[10] = test system: A204; conditions: A204, muscle
Protocol: as §1, §2, §3, §4

[11] = test system: MG63; conditions: MG63, bone
Protocol: as §1, §2, §3
(§5) Multiplicity adjusted p-values with 95% confidence interval was applied. For the invasion assays in Figure 4, one-way ANOVA with multiple comparison testing (Tukey) was performed. Multiplicity adjusted p-values with 95% confidence interval was applied. The adjusted p-values comparing vehicle control without vs. with platelets and compound

[12] = test system: MDAMB468; conditions: MDAMB468, breast
Protocol: as §1, §2, §3, §5

[13] = test system: MCF7; conditions: MCF7, breast
Protocol: as §1, §2, §3, §5

[14] = test system: JIMT1; conditions: JIMT1, breast
Protocol: as §1, §2, §3, §5

[15] = test system: MDAMB436; conditions: MDAMB436, breast
Protocol: as §1, §2, §3, §5

[16] = test system: MHHES1; conditions: MHHES1, bone
Protocol: as §1, §2, §3, §5

CN(C)Cc1ccc(S(=O)(=O)n2ccc(/C=C/C(=O)NO)c2)cc1 [resminostat, Resminostat] was tested, and the EC50 ([1]; 72 h, read-out: EC50) was 4230 nM, the EC50 ([1]; Homo sapiens, BXPC-3, 72 h, log of EC50, negative, read-out: log(EC50) (converted)) was 4270 nM and the EC50 ([1]; Homo sapiens, BXPC-3, 72 h, read-out: EC50) was 4220 nM. The EC50 ([2]; 72 h, read-out: EC50) was 1450 nM, the EC50 ([2]; Homo sapiens, 22Rv1, 72 h, log of EC50, negative, read-out: log(EC50) (converted)) was 1450 nM and the EC50 ([2]; Homo sapiens, 22Rv1, 72 h, read-out: EC50) was 1450 nM. It also gave an EC50 ([3]; 72 h, read-out: EC50) of 1780 nM, an EC50 ([3]; Homo sapiens, Caco-2, 72 h, log of EC50, negative, read-out: log(EC50) (converted)) of 1780 nM and an EC50 ([3]; Homo sapiens, Caco-2, 72 h, read-out: EC50) of 1780 nM. It also gave an EC50 ([4]; 72 h, read-out: EC50) of 3270 nM, an EC50 ([4]; Homo sapiens, CAKI-1, 72 h, log of EC50, negative, read-out: log(EC50) (converted)) of 3310 nM and an EC50 ([4]; Homo sapiens, CAKI-1, 72 h, read-out: EC50) of 3270 nM. It also gave an EC50 ([5]; 72 h, read-out: EC50) of 1320 nM, an EC50 ([5]; Homo sapiens, BT-20, 72 h, log of EC50, negative, read-out: log(EC50) (converted)) of 1320 nM and an EC50 ([5]; Homo sapiens, BT-20, 72 h, read-out: EC50) of 1320 nM. For the same compound, the EC50 ([6]; log of EC50, negative, read-out: log(EC50) (converted)) was 1660 nM, the EC50 ([6]; read-out: EC50) was 1650 nM and the EC50 ([7]; 72 h, read-out: EC50) was 3500 nM. For the same compound, the EC50 ([7]; Homo sapiens, A549, 72 h, log of EC50, negative, read-out: log(EC50) (converted)) was 3470 nM, the EC50 ([7]; Homo sapiens, A549, 72 h, read-out: EC50) was 3500 nM and the EC50 ([8]; 72 h, read-out: EC50) was 890 nM. The EC50 ([8]; Homo sapiens, A2780, 72 h, log of EC50, negative, read-out: log(EC50) (converted)) was 891 nM, the EC50 ([8]; Homo sapiens, A2780, 72 h, read-out: EC50) was 890 nM and the EC50 ([9]; Homo sapiens, 786-0, 72 h, log of EC50, negative, read-out: log(EC50) (converted)) was 2570 nM. It also gave an EC50 ([9]; Homo sapiens, 786-0, 72 h, read-out: EC50) of 2540 nM, an EC50 ([9]; 72 h, read-out: EC50) of 2540 nM and an EC50 ([10]; 72 h, read-out: EC50) of 910 nM. The EC50 ([10]; Homo sapiens, A204, 72 h, log of EC50, negative, read-out: log(EC50) (converted)) was 912 nM, the EC50 ([10]; Homo sapiens, A204, 72 h, read-out: EC50) was 906 nM and the EC50 ([11]; Homo sapiens, MG-63, 72 h, log of EC50, negative, read-out: log(EC50) (converted)) was 1740 nM. It also gave an EC50 ([11]; Homo sapiens, MG-63, 72 h, read-out: EC50) of 1760 nM, an EC50 ([11]; 72 h, read-out: EC50) of 1750 nM and an EC50 ([12]; Homo sapiens, MDA-MB-468, 72 h, log of EC50, negative, read-out: log(EC50) (converted)) of 2290 nM. It also gave an EC50 ([12]; Homo sapiens, MDA-MB-468, 72 h, read-out: EC50) of 2300 nM, an EC50 ([12]; 72 h, read-out: EC50) of 2300 nM and an EC50 ([13]; Homo sapiens, MCF7, 72 h, log of EC50, negative, read-out: log(EC50) (converted)) of 1700 nM. The EC50 ([13]; Homo sapiens, MCF7, 72 h, read-out: EC50) was 1690 nM, the EC50 ([13]; 72 h, read-out: EC50) was 1690 nM and the EC50 ([14]; Homo sapiens, JIMT-1, 72 h, log of EC50, negative, read-out: log(EC50) (converted)) was 3020 nM. It also gave an EC50 ([14]; Homo sapiens, JIMT-1, 72 h, read-out: EC50) of 3030 nM, an EC50 ([14]; 72 h, read-out: EC50) of 3030 nM and an EC50 ([15]; Homo sapiens, MDA-MB-436, 72 h, log of EC50, negative, read-out: log(EC50) (converted)) of 7080 nM. It also gave an EC50 ([15]; Homo sapiens, MDA-MB-436, 72 h, read-out: EC50) of 7150 nM, an EC50 ([15]; 72 h, read-out: EC50) of 7150 nM and an EC50 ([16]; Homo sapiens, MHH-ES-1, 72 h, log of EC50, negative, read-out: log(EC50) (converted)) of 1380 nM. For the same compound, the EC50 ([16]; Homo sapiens, MHH-ES-1, 72 h, read-out: EC50) was 1380 nM and the EC50 ([16]; 72 h, read-out: EC50) was 1380 nM.
